Tests used:
[1] = system: control sera (pooled serum of ten healthy LUMC hospital workers; commercial negative donor pooled serum from the Dutch bloodbank); type: binding, human; design: Binding of Control serum LUMC to linear peptides / Binding of Control serum Blood-bank to linear peptides / Binding of Control serum LUMC to looped peptides / Binding of Control Serum Blood-Bank to Looped peptides / Binding of Control serum LUMC to linear peptides of the protein M of SARS-CoV Urbani / Binding of Control serum Blood-bank to linear peptides of the protein M of SARS-CoV Urbani / Binding of Control serum LUMC to looped peptides of the protein M of SARS-CoV Urbani / Binding of Control Serum Blood-Bank to Looped peptides of the protein M of SARS-CoV Urbani: unit not given here
[2] = system: rabbit serum obtained by immunizing a rabbit with the SARS-CoV strain Frankfurt 1; type: binding; design: Binding of a rabbit serum to linear peptides / Binding of a rabbit serum to looped peptides / Rabbit serum linear peptides / Rabbit serum looped peptides / Binding of a rabbit serum to linear peptides of protein N of SARS-CoV Urbani (Rabbit serum linear peptides) / Binding of a rabbit serum to looped/cyclic peptides of protein N of SARS-CoV Urbani (Rabbit serum looped peptides): unit not given here
[3] = system: antibodies in sera from SARS patients (sera 1a, 1b, 2, 6, 37, 62, London, SARS-yellow, SARS-green); type: binding, human; design: Binding of serum 6 to linear peptides of protein X1 of SARS-CoV Urbani / Binding of serum 37 to linear peptides of protein X1 of SARS-CoV Urbani / Binding of serum 6 to looped/cyclic peptide (PEPSCAN-ELISA) / Binding of serum 37 to looped/cyclic peptide (PEPSCAN-ELISA) / Binding of serum 37 to looped/cyclic peptides of protein X1 of SARS-CoV Urbani / Binding of serum 6 to linear peptides of protein X2 / Binding of serum 37 to linear peptides of protein X2 / Binding of serum 37 to looped/cyclic peptides of protein X2 of SARS-CoV Urbani / Binding of serum 6 to linear peptides of protein M of SARS-CoV Urbani / Binding of serum 37 to linear peptides of protein M of SARS-CoV Urbani / Binding of serum 6 to looped/cyclic peptides of protein M of SARS-CoV Urbani / Binding of serum 37 to looped/cyclic peptides of protein M of SARS-CoV Urbani / Binding of serum 6 to linear peptides of protein X3 of SARS-CoV Urbani / Binding of serum 37 to linear peptides of protein X3 of SARS-CoV Urbani / Binding of serum 37 to looped/cyclic peptides of protein X3 of SARS-CoV Urbani / Binding of serum 6 to linear peptides of protein X4 of SARS-CoV Urbani / Binding of serum 37 to linear peptides of protein X4 of SARS-CoV Urbani / Binding of serum 37 to looped/cyclic peptides of protein X4 of SARS-CoV Urbani / Binding of serum 6 to linear peptides of protein X5 of SARS-CoV Urbani / Binding of serum 37 to linear peptides of protein X5 of SARS-CoV Urbani / Binding of serum 37 to looped/cyclic peptides of protein X5 of SARS-CoV Urbani / Binding of serum 6 to linear peptides of protein N of SARS-CoV Urbani / Binding of serum 37 to linear peptides of protein N of SARS-CoV Urbani / Binding of serum 6 to linear peptide (PEPSCAN-ELISA) / Binding of serum 1a to looped/cyclic peptides of protein N of SARS-CoV Urbani / Binding of serum 1b to looped/cyclic peptides of protein N of SARS-CoV Urbani / Binding of serum 2 to looped/cyclic peptides of protein N of SARS-CoV Urbani / Binding of serum 6 to looped/cyclic peptides of protein N of SARS-CoV Urbani / Binding of serum 37 to looped/cyclic peptides of protein N of SARS-CoV Urbani / Binding of serum 62 to looped/cyclic peptides of protein N of SARS-CoV Urbani / Binding of serum London to looped/cyclic peptides of protein N of SARS-CoV Urbani / Binding of serum SARS-green to looped/cyclic peptides of protein N of SARS-CoV Urbani: unit not given here

TTDTGIENATFFIFN
Binding of Control Serum Blood-Bank to Looped peptides [1]: 0.8
Binding of Control serum Blood-bank to linear peptides [1]: 0.6
Binding of Control serum LUMC to linear peptides [1]: 1.0
Binding of Control serum LUMC to looped peptides [1]: 0.8
Binding of a rabbit serum to linear peptides [2]: 0.1
Binding of a rabbit serum to looped peptides [2]: 0.5
Binding of serum 1a to linear peptides of protein X1 of SARS-CoV Urbani [3]: 0.8
Binding of serum 1a to looped/cyclic peptides of protein X1 of SARS-CoV Urbani [3]: 0.6
Binding of serum 1b to linear peptides of protein X1 of SARS-CoV Urbani [3]: 0.5
Binding of serum 1b to looped/cyclic peptides of protein X1 of SARS-CoV Urbani [3]: 0.6
Binding of serum 2 to linear peptides of protein X1 of SARS-CoV Urbani [3]: 0.6
Binding of serum 2 to looped/cyclic peptides of protein X1 of SARS-CoV Urbani [3]: 0.7
Binding of serum 6 to linear peptides of protein X1 of SARS-CoV Urbani [3]: 0.5
Binding of serum 6 to looped/cyclic peptides of protein X1 of SARS-CoV Urbani [3]: 0.6
Binding of serum 37 to linear peptides of protein X1 of SARS-CoV Urbani [3]: 0.6
Binding of serum 37 to looped/cyclic peptides of protein X1 of SARS-CoV Urbani [3]: 1.0
Binding of serum 62 to linear peptides of protein X1 of SARS-CoV Urbani [3]: 0.5
Binding of serum 62 to looped/cyclic peptides of protein X1 of SARS-CoV Urbani [3]: 0.9
Binding of serum London to linear peptides of protein X1 of SARS-CoV Urbani [3]: 0.3
Binding of serum London to looped/cyclic peptides of protein X1 of SARS-CoV Urbani [3]: 0.3
Binding of serum SARS-green to linear peptides of protein X1 of SARS-CoV Urbani [3]: 0.4
Binding of serum SARS-green to looped/cyclic peptides of protein X1 of SARS-CoV Urbani [3]: 0.6
Binding of serum SARS-yellow to linear peptides of protein X1 of SARS-CoV Urbani [3]: 0.5
Binding of serum SARS-yellow to looped/cyclic peptides of protein X1 of SARS-CoV Urbani [3]: 0.5

TVATSRTLSYYKLGA
Binding of Control Serum Blood-Bank to Looped peptides of the protein M of SARS-CoV Urbani [1]: 0.7
Binding of Control serum Blood-bank to linear peptides of the protein M of SARS-CoV Urbani [1]: 0.8
Binding of Control serum LUMC to linear peptides of the protein M of SARS-CoV Urbani [1]: 0.6
Binding of Control serum LUMC to looped peptides of the protein M of SARS-CoV Urbani [1]: 0.7
Rabbit serum linear peptides [2]: 0.8
Rabbit serum looped peptides [2]: 0.2
Binding of serum 1a to linear peptides of protein M of SARS-CoV Urbani [3]: 0.7
Binding of serum 1a to looped/cyclic peptides of protein M of SARS-CoV Urbani [3]: 0.8
Binding of serum 1b to linear peptides of protein M of SARS-CoV Urbani [3]: 0.6
Binding of serum 1b to looped/cyclic peptides of protein M of SARS-CoV Urbani [3]: 0.4
Binding of serum 2 to linear peptides of protein M of SARS-CoV Urbani [3]: 0.7
Binding of serum 2 to looped/cyclic peptides of protein M of SARS-CoV Urbani [3]: 0.6
Binding of serum 6 to linear peptides of protein M of SARS-CoV Urbani [3]: 0.6
Binding of serum 6 to looped/cyclic peptides of protein M of SARS-CoV Urbani [3]: 1.1
Binding of serum 37 to linear peptides of protein M of SARS-CoV Urbani [3]: 0.8
Binding of serum 37 to looped/cyclic peptides of protein M of SARS-CoV Urbani [3]: 0.5
Binding of serum 62 to linear peptides of protein M of SARS-CoV Urbani [3]: 0.8
Binding of serum 62 to looped/cyclic peptides of protein M of SARS-CoV Urbani [3]: 0.5
Binding of serum London to linear peptides of protein M of SARS-CoV Urbani [3]: 0.4
Binding of serum London to looped/cyclic peptides of protein M of SARS-CoV Urbani [3]: 0.3
Binding of serum SARS-green to linear peptides of protein M of SARS-CoV Urbani [3]: 0.3
Binding of serum SARS-green to looped/cyclic peptides of protein M of SARS-CoV Urbani [3]: 0.4
Binding of serum SARS-yellow to linear peptides of protein M of SARS-CoV Urbani [3]: 0.1
Binding of serum SARS-yellow to looped/cyclic peptides of protein M of SARS-CoV Urbani [3]: 0.5

TYQLRARSVSPKLFI
Binding of Control Serum Blood-Bank to Looped peptides [1]: 0.9
Binding of Control serum Blood-bank to linear peptides [1]: 1.0
Binding of Control serum LUMC to linear peptides [1]: 0.7
Binding of Control serum LUMC to looped peptides [1]: 0.9
Recognition of the peptide by the rabbit serum [2]: recognized
Binding of serum 1a to linear peptides of protein X4 of SARS-CoV Urbani [3]: 0.8
Binding of serum 1a to looped/cyclic peptides of protein X4 of SARS-CoV Urbani [3]: 0.9
Binding of serum 1b to linear peptides of protein X4 of SARS-CoV Urbani [3]: 0.6
Binding of serum 1b to looped/cyclic peptides of protein X4 of SARS-CoV Urbani [3]: 0.7
Binding of serum 2 to linear peptides of protein X4 of SARS-CoV Urbani [3]: 0.7
Binding of serum 2 to looped/cyclic peptides of protein X4 of SARS-CoV Urbani [3]: 0.8
Binding of serum 6 to linear peptides of protein X4 of SARS-CoV Urbani [3]: 0.9
Binding of serum 6 to looped/cyclic peptides of protein X4 of SARS-CoV Urbani [3]: 1.3
Binding of serum 37 to linear peptides of protein X4 of SARS-CoV Urbani [3]: 0.8
Binding of serum 37 to looped/cyclic peptides of protein X4 of SARS-CoV Urbani [3]: 0.6
Binding of serum 62 to linear peptides of protein X4 of SARS-CoV Urbani [3]: 0.9
Binding of serum 62 to looped/cyclic peptides of protein X4 of SARS-CoV Urbani [3]: 0.8
Binding of serum London to linear peptides of protein X4 of SARS-CoV Urbani [3]: 0.9
Binding of serum London to looped/cyclic peptides of protein X4 of SARS-CoV Urbani [3]: 1.4
Binding of serum SARS-green to linear peptides of protein X4 of SARS-CoV Urbani [3]: 0.7
Binding of serum SARS-green to looped/cyclic peptides of protein X4 of SARS-CoV Urbani [3]: 0.2
Binding of serum SARS-yellow to linear peptides of protein X4 of SARS-CoV Urbani [3]: 0.6
Binding of serum SARS-yellow to looped/cyclic peptides of protein X4 of SARS-CoV Urbani [3]: 0.9

VASFRLFARTRSMWS
Binding of Control Serum Blood-Bank to Looped peptides of the protein M of SARS-CoV Urbani [1]: 0.8
Binding of Control serum Blood-bank to linear peptides of the protein M of SARS-CoV Urbani [1]: 0.7
Binding of Control serum LUMC to linear peptides of the protein M of SARS-CoV Urbani [1]: 0.4
Binding of Control serum LUMC to looped peptides of the protein M of SARS-CoV Urbani [1]: 0.6
Rabbit serum linear peptides [2]: 0.8
Rabbit serum looped peptides [2]: 0.4
Binding of serum 1a to linear peptides of protein M of SARS-CoV Urbani [3]: 0.7
Binding of serum 1b to linear peptides of protein M of SARS-CoV Urbani [3]: 0.5
Binding of serum 2 to linear peptides of protein M of SARS-CoV Urbani [3]: 0.5
Binding of serum 6 to linear peptides of protein M of SARS-CoV Urbani [3]: 0.3
Binding of serum 37 to linear peptides of protein M of SARS-CoV Urbani [3]: 0.7
Binding of serum 62 to linear peptides of protein M of SARS-CoV Urbani [3]: 0.8
Binding of serum London to linear peptides of protein M of SARS-CoV Urbani [3]: 0.3
Binding of serum SARS-green to linear peptides of protein M of SARS-CoV Urbani [3]: 0.3
Binding of serum SARS-yellow to linear peptides of protein M of SARS-CoV Urbani [3]: 0.0
Recognition of the peptide by sera of SARS-CoV infected individuals, and form (linear, looped/cyclic) in which it is recognized [3]: recognized in looped/cyclic form

VFLWLLWPVTLACFV
Binding of Control Serum Blood-Bank to Looped peptides of the protein M of SARS-CoV Urbani [1]: 0.8
Binding of Control serum Blood-bank to linear peptides of the protein M of SARS-CoV Urbani [1]: 0.6
Binding of Control serum LUMC to linear peptides of the protein M of SARS-CoV Urbani [1]: 0.6
Binding of Control serum LUMC to looped peptides of the protein M of SARS-CoV Urbani [1]: 0.8
Rabbit serum linear peptides [2]: 0.3
Rabbit serum looped peptides [2]: 0.3
Binding of serum 1a to linear peptides of protein M of SARS-CoV Urbani [3]: 0.8
Binding of serum 1a to looped/cyclic peptides of protein M of SARS-CoV Urbani [3]: 0.7
Binding of serum 1b to linear peptides of protein M of SARS-CoV Urbani [3]: 0.6
Binding of serum 1b to looped/cyclic peptides of protein M of SARS-CoV Urbani [3]: 0.0
Binding of serum 2 to linear peptides of protein M of SARS-CoV Urbani [3]: 0.6
Binding of serum 2 to looped/cyclic peptides of protein M of SARS-CoV Urbani [3]: 0.7
Binding of serum 6 to linear peptides of protein M of SARS-CoV Urbani [3]: 0.4
Binding of serum 6 to looped/cyclic peptides of protein M of SARS-CoV Urbani [3]: 0.5
Binding of serum 37 to linear peptides of protein M of SARS-CoV Urbani [3]: 0.5
Binding of serum 37 to looped/cyclic peptides of protein M of SARS-CoV Urbani [3]: 0.7
Binding of serum 62 to linear peptides of protein M of SARS-CoV Urbani [3]: 0.5
Binding of serum 62 to looped/cyclic peptides of protein M of SARS-CoV Urbani [3]: 0.7
Binding of serum London to linear peptides of protein M of SARS-CoV Urbani [3]: 0.5
Binding of serum London to looped/cyclic peptides of protein M of SARS-CoV Urbani [3]: 0.2
Binding of serum SARS-green to linear peptides of protein M of SARS-CoV Urbani [3]: 0.6
Binding of serum SARS-green to looped/cyclic peptides of protein M of SARS-CoV Urbani [3]: 0.3
Binding of serum SARS-yellow to linear peptides of protein M of SARS-CoV Urbani [3]: 0.3
Binding of serum SARS-yellow to looped/cyclic peptides of protein M of SARS-CoV Urbani [3]: 0.8
